The series can be described thus: Solubility in fluorine-containing organic solvent 1,3-bis(trifluoromethyl)benzene, visually measured. The method, then: The solubility of the fluorine-containing boronic acid ester compound [A] in 1,3-bis(trifluoromethyl)benzene, which was a fluorine-containing organic solvent used in Reference Example 3, described later, was 3.0 g/10 ml·solvent. Here, the solubility was determined in such a manner that the compound was added and stirred in 10 ml of said fluorine-containing organic solvent at 25° C., and then the maximum amount of addition sufficient to make the solution homogeneous was visually measured.
From this fact, a high solubility in a fluorine-containing organic solvent was confirmed.

The mark [1] stands for this setting: 10 ml solvent, stirred at 25° C., maximum amount of addition giving a homogeneous solution, visually measured.

Read-outs that look alike come from different tables or passages of the source.

For the compound `OB(O)c1ccc(B(O)O)cc1` [1,4-benzene diboronic acid], under setting [1], the “solubility in 1,3-bis(trifluoromethyl)benzene” value is listed as “insoluble”.

For `CC1(C)OB(c2ccc(B3OC(C)(C)C(C)(C)O3)cc2)OC1(C)C` [1,4-bis(4,4,5,5-tetramethyl-1,3,2-dioxaborolan-2-yl)benzene], the “solubility in 1,3-bis(trifluoromethyl)benzene” value is 0.17 g/10 ml·solvent.

Consider `CN(C(=O)C(F)(OC(F)(F)C(F)(F)C(F)(F)F)C(F)(F)F)c1cc(B2OC(C)(C)C(C)(C)O2)cc(B2OC(C)(C)C(C)(C)O2)c1` (stereo not shown) [compound [A]], for which the “solubility in 1,3-bis(trifluoromethyl)benzene” value under setting [1] is recorded as 3.0 g/10 ml·solvent.

`CN(C(=O)C(F)(OC(F)(F)C(F)(OC(F)(F)C(F)(OC(F)(F)C(F)(F)C(F)(F)F)C(F)(F)F)C(F)(F)F)C(F)(F)F)c1cc(B2OC(C)(C)C(C)(C)O2)cc(B2OC(C)(C)C(C)(C)O2)c1` (stereo not shown) [compound [B]]: the “solubility in a fluorine-containing organic solvent” value (5 g added to 10 ml of 1,3-bis(trifluoromethyl)benzene) is listed as “a homogeneous solution was formed”.
